Read-outs that look alike come from different tables or passages of the source.
Legend:
[1] = system: KB (oral squamous cell carcinoma); test: sulforhodamine B cell cytotoxicity assay, KB; type: cell-based; conditions: Homo sapiens; Table 2; SRB assay, 48 h of exposure
Protocol: (§1) The human cancer cell lines—KB (oral squamous cell carcinoma). C33A (cervical carcinoma), MCF-7 (breast adenocarcinoma), A549 (lung carcinoma) and mouse embryo fibroblast (NIH3T3) were obtained from American Type Culture Collection (ATCC), USA. These cells were grown in recommended media supplemented with 10% FBS, 50 μg/mL gentamycin and 2.5 μg/mL amphotericin B in a 5% CO2 humidified atmosphere at 37° C. Cells below 15 passage level were used for this study. A colorimetric sulforhodamine B assay was used for the measurement of cell cytotoxicity. 1×10^4 cells (in 180 μL) were added to each well of 96-well plate and incubated overnight to allow for cell attachment. Cells were then treated with serial two-fold dilutions of test compounds (100 to 1.6 μM) and untreated cells receiving the same volume of medium served as control. After 48 h of exposure, cells were fixed with ice-cold 50% TCA, stained with 0.4% (w/v) SRB in 1% acetic acid, washed and air dried. Bound dye was dissolved in 150 μL of 10 mM tris base. The plates were read at 540 nm absorbance on plate reader (Polarstar Galaxy, BMG, Germany). The cytotoxic effects of compounds were calculated as % inhibition in cell growth as per the formula […].

[2] = animal weight and overt toxicity in the xenograft study; type: in vivo, SCID mice; conditions: for Average Animal weight: 100 mg/kg daily oral upto 15 days
Protocol: (§2) The in vivo efficacy studies were performed using human tumor xenografts in SCID mice. Human cervical cancer cells (HeLa) were injected subcutaneously (1×10^7 cells in 100 μl HBSS medium) on the right flank of each mouse. Tumor bearing mice were divided randomly into treatment groups and the treatment schedules began on day 7 of the xenograft. The test compound (S009-0131) was administered orally to each mouse at a daily dose of 100 mg/kg body weight, for 15 days. The standard anti-cancer drug Adriamycin (ADR) was used as ‘positive’ control and given to each mouse as an i.v. dose of 2 mg/kg body weight, Q7d×3 ([…]). The group of vehicle treated animals served as ‘negative’ control.
(§3) The tumor volume, body weight and signs of overt toxicity were monitored and recorded for the entire duration of the experiment (60 days). Tumor volumes were calculated using the formula (a×b2)/2, where a, b are two longest perpendicular diameters. Tumor growth was expressed in terms of relative tumor volume (RTV) which is the ratio of tumor volume on a particular day to the tumor volume on day 1 of the study. Tumor growth inhibition index (T/C) was calculated as follows: T/C=Average RTV of test group mice/Average RTV of control group mice.

[3] = system: MCF-7 (breast adenocarcinoma); test: sulforhodamine B cell cytotoxicity assay, MCF-7; type: cell-based; conditions: Homo sapiens, MCF7; Table 2; SRB assay, 48 h of exposure
Protocol: as §1

[4] = system: HeLa Human cervical cancer cells; test: human tumor xenograft in SCID mice, tumor growth; type: in vivo; conditions: for T/C (tumor growth inhibition index): 100 mg/kg daily oral upto 15 days; for RTV (relative tumor volume): 100 mg/kg p.o. daily up to 15 days
Protocol: as §2, §3

[5] = system: human cancer cell lines; test: in vitro anticancer activity, cell line panel (cell line not specified); type: cell-based; conditions: poor activity or lack of activity against other cell lines
Protocol: as §1

[6] = system: A549 (lung carcinoma); test: sulforhodamine B cell cytotoxicity assay, A549; type: cell-based; conditions: Homo sapiens, Table 2, SRB assay, 48 h of exposure
Protocol: as §1

[7] = system: C33A (cervical carcinoma); test: sulforhodamine B cell cytotoxicity assay, C33A; type: cell-based, human; conditions: for IC50: Homo sapiens, C-33-A
Protocol: as §1

[8] = system: mouse embryo fibroblast (NIH3T3); test: sulforhodamine B cell cytotoxicity assay, NIH3T3 non-cancer cells; type: cell-based
Protocol: as §1

In the case of `CCOC(=O)c1cc2cc(C=CC(=O)c3ccc(C)cc3)cc(C(C)CC)c2oc1=O` (stereo not shown) [Example S009-0131, Ethyl 8-sec-butyl-2-oxo-6-(3-oxo-3-p-tolylprop-1-enyl)-2H-chromene-3-carboxylate], the IC50 [1] is reported as 18 µM, the “Average Animal weight” value ([2]; day 1) is reported as 24.2 grams and the “Average Animal weight” value ([2]; day 5) is reported as 24.2 grams. For the same molecule, the “Average Animal weight” value ([2]; day 9) was 23.5 grams, the “Average Animal weight” value ([2]; day 12) was 18.5 grams and the “Average Animal weight” value ([2]; day 15) was 22.6 grams. For the same molecule, the “Average Animal weight” value ([2]; day 19) was 22.4 grams, the “Average Animal weight” value ([2]; day 22) was 23.0 grams and the “Average Animal weight” value ([2]; day 25) was 23.2 grams. The “Average Animal weight” value ([2]; day 29) was 23.6 grams, the “Average Animal weight” value ([2]; day 33) was 23.3 grams and the “Average Animal weight” value ([2]; day 37) was 23.0 grams. For the same molecule, the “Average Animal weight” value ([2]; day 41) was 23.4 grams, the “Average Animal weight” value ([2]; day 44) was 23.8 grams and the “Average Animal weight” value ([2]; day 51) was 23.4 grams. The “toxicity to the animals (loss of weight)” value ([2]; during the period of the study) was “apparently non-toxic”, the IC50 [3] was 81.1 µM and the “activity compared with standard drug adriamycin” value ([4]; HeLa xenograft, SCID mice) was “somewhat better than that of the standard drug adriamycin”. For the same molecule, the “T/C (tumor growth inhibition index)” value ([4]; day 1) was 1, the “RTV (relative tumor volume)” value ([4]; day 1) was 1 and the “T/C (tumor growth inhibition index)” value ([4]; day 5) was 0.58. The “RTV (relative tumor volume)” value ([4]; day 5) was 0.76, the “T/C (tumor growth inhibition index)” value ([4]; day 9) was 0.48 and the “RTV (relative tumor volume)” value ([4]; day 9) was 0.79. The “T/C (tumor growth inhibition index)” value ([4]; day 12) was 0.61, the “RTV (relative tumor volume)” value ([4]; day 12) was 1.21 and the “T/C (tumor growth inhibition index)” value ([4]; day 15) was 0.39. The “RTV (relative tumor volume)” value ([4]; day 15) was 1.28, the “T/C (tumor growth inhibition index)” value ([4]; day 19) was 0.28 and the “RTV (relative tumor volume)” value ([4]; day 19) was 1.01. The “T/C (tumor growth inhibition index)” value ([4]; day 22) was 0.33, the “RTV (relative tumor volume)” value ([4]; day 22) was 1.73 and the “T/C (tumor growth inhibition index)” value ([4]; day 25) was 0.29. The “RTV (relative tumor volume)” value ([4]; day 25) was 1.82, the “T/C (tumor growth inhibition index)” value ([4]; day 29) was 0.33 and the “RTV (relative tumor volume)” value ([4]; day 29) was 2.39. The “T/C (tumor growth inhibition index)” value ([4]; day 33) was 0.42, the “RTV (relative tumor volume)” value ([4]; day 33) was 4.20 and the “T/C (tumor growth inhibition index)” value ([4]; day 37) was 0.42. The “T/C (tumor growth inhibition index)” value ([4]; day 41) was 0.44, the “T/C (tumor growth inhibition index)” value ([4]; day 44) was 0.45 and the “T/C (tumor growth inhibition index)” value ([4]; day 51) was 0.38. For the same molecule, the “tumor volumes relative to the vehicle control” value ([4]; oral administration, mice bearing HeLa cells) was “significant reduction of tumor volumes”, the “selectivity among cell lines” value [5] was “most selective” and the IC50 [6] was 32.8 µM. The IC50 ([7]; Table 1, SRB assay, 48 h of exposure, read-out: IC50 C33A (cervical cancer)) was 3.59 µM, the IC50 ([7]; Table 2, SRB assay, 48 h of exposure, read-out: IC50 C33A (Cervical)) was 3.59 µM and the IC50 ([7]; read-out: IC50 against the C33A cell line) was 3.59 µM. The “activity against cervical cancer (C33A)” value ([7]; in words) was “highly active”, the IC50 ([8]; Table 1, SRB assay, 48 h of exposure, read-out: IC50 NIH3T3 (mouse fibroblast)) was > 150 µM and the IC50 ([8]; Table 2, SRB assay, 48 h of exposure, read-out: IC50 NIH3T3 (Non-cancer, fibroblast)) was > 150 µM. The IC50 ([8]; read-out: IC50 fibroblast cells NIH3T3) was > 150 µM.
